Results: patent US20260335323A1, “CHIMERIC MOLECULE” (UCL Business Ltd, priority 2023, published 2026)

Assays:
ULK1 = biological target: T1, ULK1 (Homo sapiens, UniProt O75385); assay: in vitro kinase assay measuring ATP consumption; assay type: biochemical; settings: versus BL-918
T1 sequence (O75385 1-1050): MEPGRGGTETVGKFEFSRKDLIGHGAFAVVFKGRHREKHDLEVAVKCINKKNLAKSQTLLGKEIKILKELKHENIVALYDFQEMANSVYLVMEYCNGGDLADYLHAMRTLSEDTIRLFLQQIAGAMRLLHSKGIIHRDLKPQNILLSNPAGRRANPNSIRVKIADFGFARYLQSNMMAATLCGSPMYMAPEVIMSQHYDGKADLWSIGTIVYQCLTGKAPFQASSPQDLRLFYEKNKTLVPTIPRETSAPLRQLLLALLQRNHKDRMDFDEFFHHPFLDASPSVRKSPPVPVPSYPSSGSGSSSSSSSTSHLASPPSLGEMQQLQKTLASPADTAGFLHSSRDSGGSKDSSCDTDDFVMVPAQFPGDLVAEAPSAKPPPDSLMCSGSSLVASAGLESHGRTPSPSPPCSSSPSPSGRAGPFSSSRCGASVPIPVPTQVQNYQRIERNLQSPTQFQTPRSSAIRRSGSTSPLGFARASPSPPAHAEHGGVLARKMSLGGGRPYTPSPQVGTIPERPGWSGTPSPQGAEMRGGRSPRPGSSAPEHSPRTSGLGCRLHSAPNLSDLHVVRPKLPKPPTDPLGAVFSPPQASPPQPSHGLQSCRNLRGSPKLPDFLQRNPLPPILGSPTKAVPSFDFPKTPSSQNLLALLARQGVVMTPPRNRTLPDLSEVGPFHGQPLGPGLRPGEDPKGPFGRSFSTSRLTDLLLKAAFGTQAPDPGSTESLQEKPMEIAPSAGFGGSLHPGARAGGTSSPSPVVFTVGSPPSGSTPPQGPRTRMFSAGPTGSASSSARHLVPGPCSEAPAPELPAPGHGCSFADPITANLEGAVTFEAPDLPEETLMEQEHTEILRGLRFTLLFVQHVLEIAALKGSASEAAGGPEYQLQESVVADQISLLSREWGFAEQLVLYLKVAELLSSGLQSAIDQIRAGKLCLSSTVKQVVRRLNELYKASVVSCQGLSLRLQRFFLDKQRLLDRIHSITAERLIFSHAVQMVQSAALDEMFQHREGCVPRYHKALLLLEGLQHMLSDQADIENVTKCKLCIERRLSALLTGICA
Description: Next, we designed a chimeric compound composed of a BL-918 derivative (referred to as NZ-60 herein) as our autophagy activator linked to the TSPO ligand as our targeting warhead to the outer mitochondrial membrane, utilising Huisgen-Sharpless click chemistry for the key linkage step^38-41. We designed a chemical synthesis route in 9 steps to produce two ULKTACs, NZ-65 and NZ-66. NZ-65 employs a polyethylene glycol (PEG) linker while NZ-66 uses a six carbon hexane linker (FIG. 3A). The resulting molecules were >99% pure as verified by LCMS. […] Importantly, key interactions shown to be necessary for the activation of ULK1 in its kinase domain, namely, Arg18, Lys50, Asn86 and Tyr89^8, appear to be maintained.

Mfn2 = assay: Western blot, Mfn2 degradation in MEF WT; assay type: cell-based, mouse; settings: MEF WT
Method: FIG. 6. ULKTACs rely on ULK1 for the redirection of autophagy components to mitochondria and subsequent mitophagic degradation (A) Western blot of mouse embryonic fibroblasts (MEF) WT and MEF ULK1/2^−/− treated with 1 mM ULKTACs, 5 mM CCCP or both and probed for ULK1, Mfn2 and Actin—quantification of the relative intensity of Mfn2 shown in (B), normalised to Actin. Representative immunofluorescence of MEF WT (C) and MEF ULK1/2^−/− (D) treated with 5 mM CCCP, 1 mM ULKTACs or both and immunostained for Alexa 488 ATP5a and Alexa 647 LC3B. Quantification of the colocalised LC3 to ATP5a spot area shown in WT vs ULK1/2^−/− treated MEF cells shown in (E). Data shown are mean±SEM, n=3, *p<0.05, ** p<0.01, *** p<0.001, Two-way ANOVA with Tukey's multiple comparisons test.
Cells were homogenised in protein lysis buffer consisting of 0.1 M Tris pH 8.0, 0.1 M NaCl, 5% glycerol, IGEPAL® CA-630 (#18896. Sigma-Aldrich) and 5 mM EDTA, 0.1 M N-ethyl maleimide (ThermoFisher, #23030) and protease inhibitor (Cell Signalling Technologies, #5871). Protein concentrations were determined using the BCA assay to ensure equal loading. […] The membranes were immunoblotted with primary antibodies, overnight at 4° C. ULK1 (D8H5) Rabbit mAb (#0854) [1:1000], Phospho-ULK1 (Ser 317) Rabbit antibody (#37762) [1:1000], LC3B Rabbit antibody (#2775) [1:1000], TOM20 (D8T4N) Rabbit mAb (#42406) [1:1000] and, Phospho-Ubiquitin (Ser 65) (E2J6T) Rabbit mAb (#62082) [1:500] were obtained from Cell Signalling Technologies. Recombinant Anti-Vinculin Rabbit antibody (EPR8185) (#ab129002) [1:5000] and Anti-Mitofusin2 mouse antibody (6A8) (#ab56889) [1:1000] were purchased from Abcam. Anti-Actin mouse monoclonal antibody (#A1978) [1:1000] and Anti-rabbit p62/SQSTM1 (#P0067) [1:1000], were purchased from Sigma-Aldrich. Mono- and polyubiquitinylated conjugates monoclonal antibody (FK2) (BML-PW8810-0100) [1:500] was purchased from Enzo Life Sciences. Anti BRD4 (E2A7X) rabbit monoclonal antibody (#13440), Anti c-MYC (D84C12) rabbit monoclonal antibody (#5605) [1:1000], Anti GAPDH (D4C6R) mouse monoclonal antibody (#97166) [1:1000], Anti Max (S20) rabbit monoclonal antibody (#4739) [1:1000] were purchased from Cell Signalling Technologies. Anti Phospho-CHK1 (Ser 345) rabbit monoclonal antibody (#2341) [1:1000], Anti gamma-H2AX (Ser 139) rabbit monoclonal antibody (#2577) [1:1000] were obtained from Cell Signalling Technologies, Anti RPA32/RPA2 (phospho S4/S8) rabbit monoclonal antibody (ab87277) [1:1000] were obtained from Abcam.
Membranes were then incubated with horseradish peroxidase (HRP)-conjugated secondary antibodies (Rabbit #7074 and Mouse #7076) purchased from Cell Signalling Technologies for 1 hour and the HRP signal was detected using EZ-ECL Enhanced Chemiluminescence Detection Kit for HRP (#20-500-500, Sartorius), and imaged with an Alliance Q9 Advanced (UVITec). Where required, membranes were stripped with mild stripping buffer consisting of 0.2 M glycine, 3.47 mM SDS, 1% Tween 20, pH 2.2, blocked for 1 hour with TBS-T+3% BSA and re-probed with primary antibodies.
Therefore, we conclude that NZ-65 and NZ-66 are novel ULKTAC molecules that initiate the recruitment of ULK1 to mitochondria, leading to an increase in local ULK1 activity, the formation of an autophagosome and mitophagy.

`O=C(Nc1cc(C(F)(F)F)cc(C(F)(F)F)c1)N[C@@H](C(=O)Nc1ccc(F)cc1F)c1ccc(OCc2cn(CCOCCOCCNC(=O)C(=O)c3c(-c4ccccc4)[nH]c4ccccc34)nn2)cc1` [NZ-65, (R)-2-(3-(3,5-bis(trifluoromethyl)phenyl)ureido)-N-(2,4-difluorophenyl)-2-(4-((1-(2-(2-(2-(2-oxo-2-(2-phenyl-1H-indol-3-yl)acetamido)ethoxy)ethoxy)ethyl)-1H-1,2,3-triazol-4-yl)methoxy)phenyl) acetamide] was tested, and the “activation of ULK1 vs BL-918” value (ULK1) was “comparable activity”, the “degradation of Mfn2” value (Mfn2; co-treatment with CCCP) was “further enhanced by co-treatment with CCCP” and the “degradation of Mfn2” value (Mfn2; compound alone) was “degradation of Mfn2”.
For `O=C(Nc1cc(C(F)(F)F)cc(C(F)(F)F)c1)N[C@@H](C(=O)Nc1ccc(F)cc1F)c1ccc(OCc2cn(CCCCCCNC(=O)C(=O)c3c(-c4ccccc4)[nH]c4ccccc34)nn2)cc1` [NZ-66, (R)-2-(3-(3,5-bis(trifluoromethyl)phenyl)ureido)-N-(2,4-difluorophenyl)-2-(4-((1-(6-(2-oxo-2-(2-phenyl-1H-indol-3-yl)acetamido)hexyl)-1H-1,2,3-triazol-4-yl)methoxy)phenyl) acetamide], the “activation of ULK1 vs BL-918” value (ULK1) was “comparable activity”, the “degradation of Mfn2” value (Mfn2; co-treatment with CCCP) was “further enhanced by co-treatment with CCCP” and the “degradation of Mfn2” value (Mfn2; compound alone) was “degradation of Mfn2”.
